Laboratory results: patent US20260184707A1, “PHARMACEUTICAL COMPOUNDS FOR THE TREATMENT OF COMPLEMENT MEDIATED DISORDERS” (ALEXION PHARMACEUTICALS, INC., priority 2022, published 2026)

Target: T1, Human complement C1s enzyme (Homo sapiens, UniProt P09871)
T1 construct: purified from human serum, Complement Technology, Inc; purchased Complement Technology, Inc; host or cells: human serum (plasma-derived native protein)
T1 sequence (P09871 438-688 limits assumed): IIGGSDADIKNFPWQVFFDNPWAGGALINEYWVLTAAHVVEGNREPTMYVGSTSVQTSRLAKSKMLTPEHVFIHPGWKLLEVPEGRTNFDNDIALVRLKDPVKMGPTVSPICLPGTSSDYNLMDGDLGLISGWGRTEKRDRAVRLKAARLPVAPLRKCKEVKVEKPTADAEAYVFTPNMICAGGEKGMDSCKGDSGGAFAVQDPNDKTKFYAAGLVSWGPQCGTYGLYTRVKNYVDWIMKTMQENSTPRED
T1 sequence (P09871 16-437 partner limits assumed): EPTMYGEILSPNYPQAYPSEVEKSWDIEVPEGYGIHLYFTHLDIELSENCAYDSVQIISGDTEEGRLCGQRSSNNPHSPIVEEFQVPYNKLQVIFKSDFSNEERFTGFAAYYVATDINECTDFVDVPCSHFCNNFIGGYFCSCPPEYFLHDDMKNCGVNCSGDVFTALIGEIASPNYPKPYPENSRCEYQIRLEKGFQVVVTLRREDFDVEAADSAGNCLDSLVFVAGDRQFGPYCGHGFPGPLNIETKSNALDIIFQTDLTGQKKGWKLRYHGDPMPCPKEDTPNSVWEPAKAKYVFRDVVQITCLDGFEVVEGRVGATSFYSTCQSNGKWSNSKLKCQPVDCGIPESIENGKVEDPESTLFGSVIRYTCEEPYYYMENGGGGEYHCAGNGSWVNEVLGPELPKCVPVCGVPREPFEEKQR
Assay: Human C1s enzyme assay
Assay type: biochemical
Conditions: human complement C1s enzyme 1.16 nM, substrate Z-L-Lys-SBzl, A405; read-out: IC50 (Stars)
How it was run: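 Thioesterase activity followed colorimetrically (DTNB, A405, 30-s reads) using 100 μM Z-L-Lys-SBzl substrate. Enzyme, human serum-derived C1s at 1.16 nM final, was incubated with test compound for 5 min, room temperature, pH 7.5 Tris buffer with 1 M NaCl. Rate-versus-concentration data fitted by nonlinear regression for IC50.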

SMILES	IC50
O=C(Cn1c(N2CCCCC2)cnc(NCc2noc3ccccc23)c1=O)NCc1cc2cnccc2[nH]1 [Compound 480, N-((1H-pyrrolo[3,2-c]pyridin-2-yl)methyl)-2-(3-((benzo[d]isoxazol-3-ylmethyl)amino)-2-oxo-6-(piperidin-1-yl)pyrazin-1(2H)-yl)acetamide]	< 100 nM
C[C@@H](Nc1cnc(N2CCCC2)n(CC(=O)NCc2cc3cnccc3[nH]2)c1=O)c1coc(-c2ccccc2)n1 [Compound 481, (R)-N-((1H-pyrrolo[3,2-c]pyridin-2-yl)methyl)-2-(6-oxo-5-((1-(2-phenyloxazol-4-yl)-ethyl)amino)-2-(pyrrolidin-1-yl)pyrimidin-1(6H)-yl)acet-mide]	100 to 1000 nM
COCC(=O)N1CCN(c2ncc(N[C@H](C)c3ccc4oc5ccccc5c4c3)c(=O)n2CC(=O)NCc2cc3cnccc3[nH]2)CC1 [Compound 482, (R)-N-((1H-pyrrolo[3,2-c]pyridin-2-yl)methyl)-2-(5-((1-(dibenzo[b,d]furan-2-yl)ethyl)-amino)-2-(4-(2-methoxyacet-yl)piperazin-1-yl)-6-oxopyr-imidin-1(6H)-yl)acetamide]	< 100 nM
Cn1cc(-c2ncc(NCc3cc4ccccc4o3)c(=O)n2CC(=O)NCc2cc3cnccc3[nH]2)cn1 [Compound 483, N-((1H-pyrrolo[3,2-c]pyridin-2-yl)methyl)-2-(5-((benzo-furan-2-ylmethyl)amino)-2-(1-methyl-1H-pyrazol-4-yl)-6-oxopyrimidin-1(6H)-yl)-acetamide]	< 100 nM
O=C(Cn1cncc(NCc2cc(-c3ccccc3)ns2)c1=O)NCc1cc2cnccc2[nH]1 [Compound 484, N-((1H-pyrrolo[3,2-c]pyridin-2-yl)methyl)-2-(6-oxo-5-(((3-phenylisothiazol-5-yl)methyl)-amino)pyrimidin-1(6H)-yl)-acetamide]	< 100 nM
O=C(Cn1cncc(NCc2nnc(-c3ccccc3)s2)c1=O)NCc1cc2cnccc2[nH]1 [Compound 485, N-((1H-pyrrolo[3,2-c]pyridin-2-yl)methyl)-2-(6-oxo-5-(((5-phenyl-1,3,4-thiadiazol-2-yl)-methyl)amino)pyrimidin-1(6H)-yl)acetamide]	< 100 nM
O=C(Cn1cncc(NCc2cc3ccccc3o2)c1=O)NCc1cc2cnccc2[nH]1 [Compound 486, N-((1H-pyrrolo[3,2-c]pyridin-2-yl)methyl)-2-(5-((benzofuran-2-ylmethyl)amino)-6-oxopyr-imidin-1(6H)-yl)acetamide]	< 100 nM
C[C@@H](Nc1cnc(N2CCCCC2)n(CC(=O)NCc2cc3cnccc3[nH]2)c1=O)c1nc(-c2ccccc2)co1 [Compound 487, (R)—N-((1H-Pyrrolo[3,2-c]pyridine-2-yl)methyl)-2-(6-oxo-5-((1-(4-phenyloxazol-2-yl)ethyl)amino)-2-(piperidin-1-yl)pyrimidin-1(6H)-yl) acetamide]	< 100 nM
C[C@@H](Nc1cnc(N2CCCCC2)n(CC(=O)NCc2cc3cnccc3[nH]2)c1=O)c1ncc(-c2ccccc2)o1 [Compound 488, (R)-N-((1H-pyrrolo[3,2-c]pyridin-2-yl)methyl)-2-(6-oxo-5-((1-(5-phenyloxazol-2-yl)-ethyl)amino)-2-(piperidin-1-yl)pyrimidin-1(6H)-yl)acet-amide]	< 100 nM
O=C(CN1C(=O)[C@H](NCCCc2ccccc2)CC[C@H]1c1ccccc1)NCc1cc2cnccc2[nH]1 [Compound 490, N-((1H-pyrrolo[3,2-c]pyridin-2-yl)methyl)-2-((3R,6S)-2-oxo-6-phenyl-3-((3-phenylpropyl)-amino)piperidin-1-yl)acetamide]	> 1000 nM
C[C@@H](Nc1nnc(N2CCCCC2)n(CC(=O)NCc2cc3cnccc3[nH]2)c1=O)c1ccc2oc3ccccc3c2c1 [Compound 491, (R)-N-((1H-pyrrolo[3,2-c]pyridin-2-yl)methyl)-2-(6-((1-(dibenzo[b,d]furan-2-yl)ethyl)-amino)-5-oxo-3-(piperidin-1-yl)-1,2,4-triazin-4(5H)-yl)-acetamide]	< 100 nM
O=C(Cn1c(N2CCOCC2)cnc(NC(=O)c2coc(-c3ccccc3)n2)c1=O)NCc1cc2cnccc2[nH]1 [Compound 492, N-(4-(2-(((1H-Pyrrolo[3,2-c]pyridine-2-yl)methyl)amino)-2-oxoethyl)-5-morpholino-3-oxo-3,4-dihydropyrazin-2-yl)-2-phenyloxazole-4-carboxamide]	< 100 nM
O=C(Cn1c(N2CCCCC2)cnc(N[C@H](CO)c2ccc3oc4ccccc4c3c2)c1=O)NCc1cc2cnccc2[nH]1 [Compound 493, (S)—N-((1H-Pyrrolo[3,2-c]pyridine-2-yl)methyl)-2-(3-((1-(dibenzo[b,d]furan-2-yl)-2-hydroxyethyl)amino)-2-oxo-6-(piperidin-1-yl)pyrazin-1(2H)-yl)acetamide]	> 1000 nM
O=C(Cn1c(N2CCCCC2)cnc(N[C@H](CF)c2ccc3oc4ccccc4c3c2)c1=O)NCc1cc2cnccc2[nH]1 [Compound 494, (S)-N-((1H-pyrrolo[3,2-c]pyridin-2-yl)methyl)-2-(3-((1-(dibenzo[b,d]furan-2-yl)-2-fluoroethyl)amino)-2-oxo-6-(piperidin-1-yl)pyrazin-1(2H)-yl)acetamide]	> 1000 nM
